Experimental data from patent US11071788B2, “Antibody drug conjugates of kinesin spindel protein (KSP) inhibitors with antiB7H3-antibodies” (BAYER PHARMA AKTIENGESELLSCHAFT, priority 2015, dated 2021).
Structures can show the parent of a compound that is named as a salt.

Columns and labels:
[1] = system: NCI-H292; assay: Cytotoxicity MTT assay, NCI-H292; type: cell-based, human
Excerpt: (§1) Table 2 below lists the IC50 values of representative working examples from the assay described and the corresponding cytotoxicity data (MTT assay).

[2] = system: KPL4; assay: Cytotoxicity MTT assay, KPL4; type: cell-based
Excerpt: as §1

[3] = system: Caco-2 cells; assay: Cell permeability flux assay using Caco-2 cells; type: in vitro ADME; conditions: for Papp (B-A): Caco-2, 2 hours incubation; for Efflux ratio: ratio of Papp (B-A) to Papp (A-B), Caco-2
[4] = target: motor domain of the human kinesin spindle protein KSP/Eg5 (Homo sapiens (Human), UniProt P52732); assay: Inhibition of the kinesin spindle protein KSP/Eg5 (ATPase, malachite green); type: biochemical; conditions: 10 nM KSP motor domain, microtubuli, 500 μM ATP, 2 h RT
Procedure: The motor domain of the human kinesin spindle protein KSP/Eg5 (tebu-bio/Cytoskeleton Inc, No. 027EG01-XL) was incubated in a concentration of 10 nM with microtubuli (bovine or porcine, tebu-bio/Cytoskeleton Inc) stabilized with 50 μg/ml taxol (Sigma No. T7191-5MG) for 5 min at RT in 15 mM PIPES, pH 6.8 (5 mM MgCl2 and 10 mM DTT, Sigma). […] Incubation was at RT for 2 h. ATPase activity was detected by detecting the inorganic phosphate formed using malachite green (Biomol). […] The positive controls used were monastrol (Sigma, M8515-1 mg) and ispinesib (AdooQ Bioscience A10486). The individual data of the dose-activity curve are eight-fold determinations. The IC50 values are means of two independent experiments.

[5] = Homo sapiens, NCI-H292, MTT assay

Sequence of motor domain of the human kinesin spindle protein KSP/Eg5 (P52732 18-359): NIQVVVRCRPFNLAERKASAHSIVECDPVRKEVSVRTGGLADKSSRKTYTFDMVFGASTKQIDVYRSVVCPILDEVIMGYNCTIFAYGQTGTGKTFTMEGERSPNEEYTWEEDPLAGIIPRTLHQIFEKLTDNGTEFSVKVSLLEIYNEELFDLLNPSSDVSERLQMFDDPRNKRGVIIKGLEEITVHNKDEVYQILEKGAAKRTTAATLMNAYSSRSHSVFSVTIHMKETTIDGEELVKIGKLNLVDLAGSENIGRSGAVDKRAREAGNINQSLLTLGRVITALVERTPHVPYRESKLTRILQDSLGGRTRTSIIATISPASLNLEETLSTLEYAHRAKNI

## CC(C)(C)[C@H](c1cc(-c2cc(F)ccc2F)cn1Cc1ccccc1)N(CC[C@H](N)C(=O)NCCNC(=O)CNC(=O)CC(SC[C@H](N)C(=O)O)C(=O)O)C(=O)CO (some centres unmarked) [Example M2]
[1]; MTT assay
  IC50: 204 nM
[2]; MTT assay
  IC50: 163 nM
[3]
  Papp (B-A): 0.48 ×10⁻⁶ cm/s

## CC(C)(C)[C@H](c1cc(-c2cc(F)ccc2F)cn1Cc1ccccc1)N(CC[C@H](N)C(=O)NCCNC(=O)CNC(=O)CC(SC[C@H](N)C(=O)O)C(=O)O)C(=O)CO (single isomer, unassigned) [Example M13]
[1]; [5]
  IC50: 152 nM
[2]; KPL4, MTT assay
  IC50: 169 nM

## CC(C)(C)[C@H](c1cc(-c2cc(F)ccc2F)cn1Cc1ccccc1)N(CC[C@H](N)C(=O)NCCC(=O)NCCCC[C@H](N)C(=O)O)C(=O)CO [Example M19, N^6—(N-{(2S)-2-Amino-4-[{(1R)-1-[1-benzyl-4-(2,5-difluorophenyl)-1H-pyrrol-2-yl]-2,2-dimethylpropyl}(glycoloyl)amino]butanoyl}-beta-alanyl)-L-lysine/trifluoroacetic acid (1:1)]
[1]; [5]
  IC50: 121 nM

## CC(C)(C)[C@H](c1cc(-c2cc(F)ccc2F)cn1Cc1ccccc1)N(CC[C@H](N)C(=O)NCCNC(=O)CC[C@H](N)C(=O)O)C(=O)CO [Example M18, N-[2-({(2S)-2-Amino-4-[{(1R)-1-[1-benzyl-4-(2,5-difluorophenyl)-1H-pyrrol-2-yl]-2,2-dimethylpropyl}(glycoloyl)amino]butanoyl}amino)ethyl]-L-glutamine/trifluoroacetic acid (1.1)]
[1]; [5]
  IC50: 35.5 nM

## CC(C)(C)[C@H](c1cc(-c2cc(F)ccc2F)cn1Cc1ccccc1)N(CC[C@H](N)C(=O)NCCNC(=O)CNC(=O)C(CC(=O)O)SC[C@H](N)C(=O)O)C(=O)CO (single isomer, unassigned) [Example M15]
[1]; [5]
  IC50: 133 nM
[2]; KPL4, MTT assay
  IC50: 169 nM

## CC(C)(C)[C@H](c1cc(-c2cc(F)ccc2F)cn1Cc1ccccc1)N(CCCN)C(=O)CO [Example M9, N-(3-Aminopropyl)-N-{(1R)-1-[1-benzyl-4-(2,5-difluorophenyl)-1H-pyrrol-2-yl]-2,2-dimethylpropyl}-2-hydroxyacetamide]
[1]; Homo sapiens, NCI-H292
  IC50: 0.774 nM
[2]; KPL4
  IC50: 0.257 nM

## CC(C)(C)[C@H](c1cc(-c2cc(F)ccc2F)cn1Cc1ccccc1)N(CCCN)C(=O)CSC[C@H](NC(=O)CCOCCOCCOCCOCCNC(=O)CCNC(=O)CC(SC[C@H](N)C(=O)O)C(=O)O)C(=O)O (some centres unmarked) [Example M10]
[4]
  IC50: 0.47 nM
[1]; MTT assay
  IC50: 303 nM
[2]; MTT assay
  IC50: 226 nM

## CC(C)(C)[C@H](c1cc(-c2cc(F)ccc2F)cn1Cc1ccccc1)N(CC[C@H](N)C(=O)NCCOCCN1C(=O)CC(SC[C@H](N)C(=O)O)C1=O)C(=O)CO (stereo partly drawn) [Example M4, S-(1-{2-[2-({(2S)-2-Amino-4-[{(1R)-1-[1-benzyl-4-(2,5-difluorophenyl)-1H-pyrrol-2-yl]-2,2-dimethylpropyl}(glycoloyl)amino]butanoyl}amino)ethoxy]ethyl}-2,5-dioxopyrrolidin-3-yl)-L-cysteine/trifluoroacetic acid (1:1)]
[1]; [5]
  IC50: 44.3 nM
[2]; KPL4, MTT assay
  IC50: 176 nM

## CC(C)(C)[C@H](c1cc(-c2cc(F)ccc2F)cn1Cc1ccccc1)N(CC[C@H](N)C(=O)NCCNC(=O)CNC(=O)C(CC(=O)O)SC[C@H](N)C(=O)O)C(=O)CO (mixture of isomers) [Example M27, 4-[(2-{[2-({(2S)-2-Amino-4-[{(1R)-1-[1-benzyl-4-(2,5-difluorophenyl)-1H-pyrrol-2-yl]-2,2-dimethylpropyl}(glycoloyl)amino]butanoyl}amino)ethyl]amino}-2-oxoethyl)amino]-3-{[(2R)-2-amino-2-carboxyethyl]sulfanyl}-4-oxobutanoic acid-trifluoroacetic acid (1:1)]
[1]; [5]
  IC50: 276 nM

## CC(C)(C)[C@H](c1cc(-c2cc(F)ccc2F)cn1Cc1ccccc1)N(CCCN)C(=O)CSC[C@H](NC(=O)CCOCCOCCOCCOCCNC(=O)CNC(=O)CC(SC[C@@H](N)C(=O)O)C(=O)O)C(=O)O (some centres unmarked) [Example M22]
[1]; MTT assay
  IC50: 28.9 nM
[2]; MTT assay
  IC50: 182 nM
[3]
  Papp (B-A): 0.09 ×10⁻⁶ cm/s

## CC(C)(C)[C@H](c1cc(-c2cc(F)ccc2F)cn1Cc1ccccc1)N(CCCN)C(=O)CSC[C@H](N)C(=O)O [Example M11, S-{2-[(3-Aminopropyl){(1R)-1-[1-benzyl-4-(2,5-difluorophenyl)-1H-pyrrol-2-yl]-2,2-dimethyl-propyl}amino]-2-oxoethyl}-L-cysteine/trifluoroacetic acid (1:2)]
[1]; [5]
  IC50: 0.0432 nM

## CC(C)(C)[C@H](c1cc(-c2cc(F)ccc2F)cn1Cc1ccccc1)N(CC[C@H](N)C(=O)NCCOCCNC(=O)CC(SC[C@H](N)C(=O)O)C(=O)O)C(=O)CO (some centres unmarked) [Example M5]
[4]
  IC50: 0.457 nM
[1]; MTT assay
  IC50: 79.4 nM
[2]; MTT assay
  IC50: 222 nM
[3]
  Papp (B-A): 2.03 ×10⁻⁶ cm/s
  Efflux ratio: 26.5

## CC(C)(C)[C@H](c1cc(-c2cc(F)ccc2F)cn1Cc1ccccc1)N(CC[C@H](N)C(=O)NCCNC(=O)CNC(=O)C(CC(=O)O)SC[C@H](N)C(=O)O)C(=O)CO (single isomer, unassigned) [Example M16]
[1]; [5]
  IC50: 143 nM
[2]; KPL4, MTT assay
  IC50: 195 nM

## CC(C)(C)[C@H](c1cc(-c2cc(F)ccc2F)cn1Cc1ccccc1)N(CC[C@H](N)C(=O)NCCNC(=O)CNC(=O)CC(SC[C@H](N)C(=O)O)C(=O)O)C(=O)CO (single isomer, unassigned) [Example M14]
[1]; MTT assay
  IC50: 174 nM
[2]; MTT assay
  IC50: 182 nM

## CC(C)(C)[C@H](c1cc(-c2cc(F)ccc2F)cn1Cc1ccccc1)N(CCCN)C(=O)CSC[C@H](NC(=O)CCC(=O)O)C(=O)O [Example M12, 4-{[(1R)-2-({2-[(3-Aminopropyl) {(1R)-1-[1-benzyl-4-(2,5-difluorophenyl)-1H-pyrrol-2-yl]-2,2-dimethylpropyl}amino]-2-oxoethyl}sulphanyl)-1-carboxyethyl]amino}-4-oxobutanoic acid/trifluoroacetic acid (1:1)]
[1]; [5]
  IC50: 33 nM

## CC(C)(C)[C@H](c1cc(-c2cc(F)ccc2F)cn1Cc1ccccc1)N(CC[C@H](N)C(=O)NCCNC(=O)CSC[C@H](N)C(=O)O)C(=O)CO [Example M7, S-(2-{[2-({(2S)-2-Amino-4-[{(1R)-1-[1-benzyl-4-(2,5-difluorophenyl)-1H-pyrrol-2-yl]-2,2-dimethylpropyl}(glycoloyl)amino]butanoyl}amino)ethyl]amino}-2-oxoethyl)-L-cysteine/trifluoroacetic acid (1:1)]
[1]; [5]
  IC50: 22.2 nM
[2]; KPL4, MTT assay
  IC50: 92.5 nM

## CC(C)(C)[C@H](c1cc(-c2cc(F)ccc2F)cn1Cc1ccccc1)N(CCCN)C(=O)CSC[C@H](NC(=O)CCOCCOCCOCCOCCNC(=O)CNC(=O)CC(SC[C@H](N)C(=O)O)C(=O)O)C(=O)O (stereo partly drawn) [Example M20, (1R,4R,27R,33R)-1-Amino-32-(3-aminopropyl)-33-[1-benzyl-4-(2,5-difluorophenyl)-1H-pyrrol-2-yl]-34,34-dimethyl-6,9,25,31-tetraoxo-13,16,19,22-tetraoxa-3,29-dithia-7,10,26,32-tetraazapentatriacontane-1,4,27-tricarboxylic acid/trifluoroacetic acid (1:2)]
[1]; [5]
  IC50: 149 nM
[2]; KPL4, MTT assay
  IC50: 213 nM

## CC(C)(C)[C@H](c1cc(-c2cc(F)ccc2F)cn1Cc1ccccc1)N(CC[C@H](N)C(=O)N[C@H](CNC(=O)CNC(=O)CC(SC[C@H](N)C(=O)O)C(=O)O)C(=O)O)C(=O)CO (some centres unmarked) [Example M3]
[4]
  IC50: 1.52 nM
[1]; MTT assay
  IC50: 32.1 nM
[2]; MTT assay
  IC50: 90 nM
[3]
  Papp (B-A): 0.14 ×10⁻⁶ cm/s
  Efflux ratio: 1.3

## CC(C)(C)[C@H](c1cc(-c2cc(F)ccc2F)cn1Cc1ccccc1)N(CC[C@H](N)C(=O)O)C(=O)CO [Example M17, (2S)-2-Amino-4-[{(1R)-1-[1-benzyl-4-(2,5-difluorophenyl)-1H-pyrrol-2-yl]-2,2-dimethylpropyl}(glycoloyl)amino]butanoic acid hydrochloride (1.1)]
[1]; [5]
  IC50: 7.35 nM

## CC(C)(C)[C@H](c1cc(-c2cc(F)ccc2F)cn1Cc1ccccc1)N(CC[C@H](N)C(=O)NCCNC(=O)CN1C(=O)CC(SC[C@H](N)C(=O)O)C1=O)C(=O)CO (stereo partly drawn) [Example M1, S-[1-(2-{[2-({(2S)-2-Amino-4-[{(1R)-1-[1-benzyl-4-(2,5-difluorophenyl)-1H-pyrrol-2-yl]-2,2-dimethylpropyl}(glycoloyl)amino]butanoyl}amino)ethyl]amino}-2-oxoethyl)-2,5-dioxopyrrolidin-3-yl]-L-cysteine/trifluoroacetic acid (1:1)]
[1]; [5]
  IC50: 500 nM
[2]; KPL4, MTT assay
  IC50: 500 nM

## CC(C)(C)[C@H](c1cc(-c2cc(F)ccc2F)cn1Cc1ccccc1)N(CC[C@H](N)C(=O)NCCC(=O)N[C@H](CCC(=O)O)C(=O)O)C(=O)CO [Example M24, N-{(2S)-2-Amino-4-[{(1R)-1-[1-benzyl-4-(2,5-difluorophenyl)-1H-pyrrol-2-yl]-2,2-dimethylpropyl}(glycoloyl)amino]butanoyl}-beta-alanyl-D-glutamic acid-trifluoroacetic acid]
[1]; [5]
  IC50: 167 nM
[2]; KPL4, MTT assay
  IC50: 500 nM

## CC(C)(C)[C@H](c1cc(-c2cc(F)ccc2F)cn1Cc1ccccc1)N(CC[C@H](N)C(=O)NCCC(=O)N[C@@H](CCC(=O)O)C(=O)O)C(=O)CO [Example M23, N-{(2S)-2-Amino-4-[{(1R)-1-[1-benzyl-4-(2,5-difluorophenyl)-1H-pyrrol-2-yl]-2,2-dimethylpropyl}(glycoloyl)amino]butanoyl}-beta-alanyl-L-glutamic acid-trifluoroacetic acid (1.1)]
[1]; [5]
  IC50: 500 nM
[2]; KPL4, MTT assay
  IC50: 500 nM
